Source: patent US12286442B2, “Methods and materials for increasing transcription factor eb polypeptide levels” (University of Pittsburgh—Of the Commonwealth System of …, priority 2019, dated 2025)

test system: TFEB; experiment: High content screen measuring TFEB nuclear accumulation (TFEB nuclear/cytosol ratio) in BEAS-2B cells stably expressing TFEB-EGFP; assay type: cell-based, human; conditions: 18 hours incubation
How it was run: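 Readout: lowest compound concentration giving a 25% rise in nuclear/cytosol TFEB-GFP ratio, from DAPI-masked nuclear and mask-expanded cytosolic signals. Cells (BEAS-2B, TFEB-EGFP stable, ~2300–2500/well) rested 8 hours, then treated 18 hours with compound serial dilutions in 2% FBS medium before PFA fixation and DAPI staining.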

Structure (SMILES)	efficacy (minimal compound concentration needed to increase TFEB nuclear/cytosol ratio by 25%)
c1ccc(-c2cc3ncccc3c(Nc3ccc4nc(C5CC5)sc4c3)n2)nc1 [Compound 248]	++ (“++” equals between ≤25 μM and >1 μM)
c1cnc2ccc(Nc3nc(-c4ccncc4)nc4ncccc34)cc2c1 [Compound 138]	+++ (“+++” equals ≤1 μM)
c1ccc2c(Nc3ccc4[nH]cnc4c3)nc(-c3ccncc3)nc2c1 [Compound 193]	++ (“++” equals between ≤25 μM and >1 μM)
CC(=O)n1ccc2cc(Nc3nc(-c4ccncc4)nc4ccccc34)ccc21 [Compound 70]	+++ (“+++” equals ≤1 μM)
CCc1nc2ccc(Nc3nc(-c4ccncc4)nc4ncccc34)cc2o1 [Compound 356]	+++ (“+++” equals ≤1 μM)
Cc1cc(Br)cc(Nc2nc(-c3ccncc3)nc3ccccc23)c1 [Compound 55]	+ (“+” equals >25 μM)
c1cc(Nc2nc(-c3ccncc3)nc3ccccc23)c2[nH]ncc2c1 [Compound 100]	+ (“+” equals >25 μM)
CCN(c1ccc2[nH]ccc2c1)c1nc(-c2ccncc2)nc2ccccc12 [Compound 72]	+++ (“+++” equals ≤1 μM)
c1ccc(CCNc2nc(-c3ccncc3)nc3ccccc23)cc1 [Compound 167]	++ (“++” equals between ≤25 μM and >1 μM)
CCc1nc2ccc(Nc3nc(-c4ccncc4)nc4ccc(C)cc34)cc2s1 [Compound 147]	++ (“++” equals between ≤25 μM and >1 μM)
CCCCc1nc2ccc(Nc3nc(-c4ccncc4)nc4ncccc34)cc2o1 [Compound 365]	+++ (“+++” equals ≤1 μM)
CS(=O)(=O)CCCNc1nc(-c2ccncc2)nc2ccccc12 [Compound 172]	+ (“+” equals >25 μM)
Cc1c(Nc2nc(-c3ccncc3)nc3ccccc23)ccc2[nH]ccc12 [Compound 61]	+++ (“+++” equals ≤1 μM)
Cc1ccc(-c2nc(Nc3cccc(F)c3)c3ccccc3n2)cc1 [Compound 159]	+ (“+” equals >25 μM)
COc1ccc(-n2c(=O)c3ccc(C(=O)NCCc4ccccc4)cc3n(CC(=O)Nc3ccc(C)cc3)c2=O)cc1 [Compound 222]	++ (“++” equals between ≤25 μM and >1 μM)
NS(=O)(=O)CCCNc1nc(-c2ccncc2)nc2ccccc12 [Compound 174]	+ (“+” equals >25 μM)
CC(C)(C)c1cc2cc(Nc3nc(-c4ccncc4)nc4ccccc34)ccc2[nH]1 [Compound 74]	+++ (“+++” equals ≤1 μM)
c1ccc2c(Nc3ccc4c(c3)OCCN4)nc(-c3ccncc3)nc2c1 [Compound 41]	++ (“++” equals between ≤25 μM and >1 μM)
Fc1cc(Nc2nc(-c3ccncc3)nc3ccccc23)cc(C(F)(F)F)c1 [Compound 18]	+ (“+” equals >25 μM)
Cc1cccc(Nc2nc(-c3ccncc3C)nc3ccccc23)c1 [Compound 54]	+ (“+” equals >25 μM)
CCc1nc2ccc(Nc3nc(-c4ccncc4)nc4ccc(F)cc34)cc2s1 [Compound 151]	+++ (“+++” equals ≤1 μM)
Fc1cc(Nc2nc(-c3ccncc3)nc3ccccc23)cc2cc[nH]c12 [Compound 71]	+++ (“+++” equals ≤1 μM)
Cc1c(-c2ccncc2)nc(Nc2ccc3nc(C4CC4)sc3c2)c2cccnc12 [Compound 333]	+++ (“+++” equals ≤1 μM)
CC(C)c1nc2ccc(Nc3nc(-c4ccncc4)nc4ncccc34)cc2s1 [Compound 130]	+++ (“+++” equals ≤1 μM)
c1ccc2c(Nc3ccc4c(c3)CCN4)nc(-c3ccncc3)nc2c1 [Compound 35]	+++ (“+++” equals ≤1 μM)
COc1ccc2nc(-c3ccncc3)nc(Nc3ccc4[nH]ccc4c3)c2c1 [Compound 113]	+++ (“+++” equals ≤1 μM)
c1cc(-c2nc(Nc3ccc4[nH]ccc4c3)c3cnccc3n2)ccn1 [Compound 84]	+++ (“+++” equals ≤1 μM)
N#Cc1cccc(Nc2nc(-c3ccncc3)nc3ccccc23)c1 [Compound 186]	+++ (“+++” equals ≤1 μM)
COc1ccc(-n2c(=O)c3ccc(C(=O)NCCc4ccccc4)cc3n(Cc3cccc(F)c3)c2=O)cc1 [Compound 215]	++ (“++” equals between ≤25 μM and >1 μM)

test system: BEAS-2B cells; experiment: Toxicity: compound concentration needed to induce greater than 50 percent of cell loss; assay type: cell-based, human; conditions: 18 hours incubation
How it was run: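 Reported value is the concentration giving greater than 50 percent cell loss, grouped into bins (≥25 μM; between 1 and 25 μM; ≤1 μM as "+++"). Measured by high-content imaging of DAPI-stained BEAS-2B TFEB-EGFP cells fixed after 18 h compound exposure.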

Structure (SMILES)	toxicity (compound concentration needed to induce greater than 50 percent of cell loss)
c1ccc(-c2cc3ncccc3c(Nc3ccc4nc(C5CC5)sc4c3)n2)nc1 [Compound 248]	+ (cell loss of greater than 50 percent at a concentration that equals or is greater than 25 μM was represented as)
c1cnc2ccc(Nc3nc(-c4ccncc4)nc4ncccc34)cc2c1 [Compound 138]	+ (cell loss of greater than 50 percent at a concentration that equals or is greater than 25 μM was represented as)
c1ccc2c(Nc3ccc4[nH]cnc4c3)nc(-c3ccncc3)nc2c1 [Compound 193]	++ (cell loss of greater than 50 percent at a concentration less than 25 μM and greater than 1 μM was represented as)
CC(=O)n1ccc2cc(Nc3nc(-c4ccncc4)nc4ccccc34)ccc21 [Compound 70]	+ (cell loss of greater than 50 percent at a concentration that equals or is greater than 25 μM was represented as)
CCc1nc2ccc(Nc3nc(-c4ccncc4)nc4ncccc34)cc2o1 [Compound 356]	+ (cell loss of greater than 50 percent at a concentration that equals or is greater than 25 μM was represented as)
Cc1cc(Br)cc(Nc2nc(-c3ccncc3)nc3ccccc23)c1 [Compound 55]	+ (cell loss of greater than 50 percent at a concentration that equals or is greater than 25 μM was represented as)
c1cc(Nc2nc(-c3ccncc3)nc3ccccc23)c2[nH]ncc2c1 [Compound 100]	+ (cell loss of greater than 50 percent at a concentration that equals or is greater than 25 μM was represented as)
CCN(c1ccc2[nH]ccc2c1)c1nc(-c2ccncc2)nc2ccccc12 [Compound 72]	+++ (cell loss of greater than 50 percent at a concentration that equals or is less than 1 μM was represented as “+++.”)
c1ccc(CCNc2nc(-c3ccncc3)nc3ccccc23)cc1 [Compound 167]	+ (cell loss of greater than 50 percent at a concentration that equals or is greater than 25 μM was represented as)
CCc1nc2ccc(Nc3nc(-c4ccncc4)nc4ccc(C)cc34)cc2s1 [Compound 147]	+ (cell loss of greater than 50 percent at a concentration that equals or is greater than 25 μM was represented as)
CCCCc1nc2ccc(Nc3nc(-c4ccncc4)nc4ncccc34)cc2o1 [Compound 365]	+ (cell loss of greater than 50 percent at a concentration that equals or is greater than 25 μM was represented as)
CS(=O)(=O)CCCNc1nc(-c2ccncc2)nc2ccccc12 [Compound 172]	+ (cell loss of greater than 50 percent at a concentration that equals or is greater than 25 μM was represented as)
Cc1c(Nc2nc(-c3ccncc3)nc3ccccc23)ccc2[nH]ccc12 [Compound 61]	++ (cell loss of greater than 50 percent at a concentration less than 25 μM and greater than 1 μM was represented as)
Cc1ccc(-c2nc(Nc3cccc(F)c3)c3ccccc3n2)cc1 [Compound 159]	+ (cell loss of greater than 50 percent at a concentration that equals or is greater than 25 μM was represented as)
COc1ccc(-n2c(=O)c3ccc(C(=O)NCCc4ccccc4)cc3n(CC(=O)Nc3ccc(C)cc3)c2=O)cc1 [Compound 222]	++ (cell loss of greater than 50 percent at a concentration less than 25 μM and greater than 1 μM was represented as)
NS(=O)(=O)CCCNc1nc(-c2ccncc2)nc2ccccc12 [Compound 174]	+ (cell loss of greater than 50 percent at a concentration that equals or is greater than 25 μM was represented as)
CC(C)(C)c1cc2cc(Nc3nc(-c4ccncc4)nc4ccccc34)ccc2[nH]1 [Compound 74]	++ (cell loss of greater than 50 percent at a concentration less than 25 μM and greater than 1 μM was represented as)
c1ccc2c(Nc3ccc4c(c3)OCCN4)nc(-c3ccncc3)nc2c1 [Compound 41]	++ (cell loss of greater than 50 percent at a concentration less than 25 μM and greater than 1 μM was represented as)
Fc1cc(Nc2nc(-c3ccncc3)nc3ccccc23)cc(C(F)(F)F)c1 [Compound 18]	+ (cell loss of greater than 50 percent at a concentration that equals or is greater than 25 μM was represented as)
Cc1cccc(Nc2nc(-c3ccncc3C)nc3ccccc23)c1 [Compound 54]	+ (cell loss of greater than 50 percent at a concentration that equals or is greater than 25 μM was represented as)
CCc1nc2ccc(Nc3nc(-c4ccncc4)nc4ccc(F)cc34)cc2s1 [Compound 151]	+ (cell loss of greater than 50 percent at a concentration that equals or is greater than 25 μM was represented as)
Fc1cc(Nc2nc(-c3ccncc3)nc3ccccc23)cc2cc[nH]c12 [Compound 71]	+ (cell loss of greater than 50 percent at a concentration that equals or is greater than 25 μM was represented as)
Cc1c(-c2ccncc2)nc(Nc2ccc3nc(C4CC4)sc3c2)c2cccnc12 [Compound 333]	+ (cell loss of greater than 50 percent at a concentration that equals or is greater than 25 μM was represented as)
CC(C)c1nc2ccc(Nc3nc(-c4ccncc4)nc4ncccc34)cc2s1 [Compound 130]	+ (cell loss of greater than 50 percent at a concentration that equals or is greater than 25 μM was represented as)
c1ccc2c(Nc3ccc4c(c3)CCN4)nc(-c3ccncc3)nc2c1 [Compound 35]	++ (cell loss of greater than 50 percent at a concentration less than 25 μM and greater than 1 μM was represented as)
COc1ccc2nc(-c3ccncc3)nc(Nc3ccc4[nH]ccc4c3)c2c1 [Compound 113]	++ (cell loss of greater than 50 percent at a concentration less than 25 μM and greater than 1 μM was represented as)
c1cc(-c2nc(Nc3ccc4[nH]ccc4c3)c3cnccc3n2)ccn1 [Compound 84]	+ (cell loss of greater than 50 percent at a concentration that equals or is greater than 25 μM was represented as)
N#Cc1cccc(Nc2nc(-c3ccncc3)nc3ccccc23)c1 [Compound 186]	+ (cell loss of greater than 50 percent at a concentration that equals or is greater than 25 μM was represented as)
COc1ccc(-n2c(=O)c3ccc(C(=O)NCCc4ccccc4)cc3n(Cc3cccc(F)c3)c2=O)cc1 [Compound 215]	++ (cell loss of greater than 50 percent at a concentration less than 25 μM and greater than 1 μM was represented as)
